Measured values taken from US11578368B2, “Methods, tools and systems for the assessment, prevention, management and treatment selection for type 2 diabetes” (Patia Biopharma, S.A. De C.V., priority 2015, dated 2023).

Columns and labels:
[1] = cited from earlier work
[2] = cited from earlier work; remark: listed apart in the source
[3] = system: patients with and without the E508K variant of HNF1A; assay: Study of acute glipizide response in humans with the HNF1A E508K variant; assay type: in vivo, human; conditions: carriers vs non-carriers of HNF1A E508K, preliminary results, statistical analysis ongoing
Method: Acute and medium-term response to glipizide in patients with and without the E508K variant of HNF1A will be measured. The study will consist of two phases. Patients will be invited to participate in both, but the research subject will have the freedom to choose only one of the stages of the study.
Open Study of a Single Dose of Glipizide (5 mg) in Patients With and Without the E508K Variant of HNF1A
Main Objective: To compare the change in glucose between carriers and noncarriers after a single oral administration of 5 mg of glipizide. […]
Eligible patients will discontinue antidiabetic therapy and initiate a washout period of 7 days, during which they will be monitored for hyperglycemia requiring re-initiation of antidiabetic therapy. […]
Patients will be admitted to the clinical research center after fasting for 8 hours. […] The concentrations of glucose, insulin and other hormones (GLP1) and metabolites will be measured at 15, 30, 60, 90, 120, 180, and 240 minutes after administration of 5 mg of glipizide. In the event of developing symptoms of hypoglycemia, blood glucose will be measured immediately. […]

Compound	rate of gastrointestinal adverse events ([1]; at the proposed dose)	life ([2]; described as short)	time until it starts acting ([2]; oral)	risk of inducing severe hypoglycemia ([1]; described as low)	hypoglycaemic response to glipizide in carriers of the E508K HNF1A variant [3]	hypoglycaemic response to glipizide in carriers of the E508K HNF1A variant ([3]; listed as glipizide)
CN(C)C(=N)N=C(N)N [Metformin]	low rate	–	–	–	–	–
Cc1cnc(C(=O)NCCc2ccc(S(=O)(=O)NC(=O)NC3CCCCC3)cc2)cn1 [Glipizide]	–	2 to 8 h	≤ 30 min	0.19-2.5 episodes per 1000 patient-years	greater response	great hypoglycaemic response
